Reference: patent publication US6815425B1 (The United States of America as represented by the …, priority 1999, dated 2004)
“Also recorded” adds a separate entry of the source.

Tests used:
volume of necrosis = details: administered 15 min prior or 30 min post TBI; preliminary studies; cited from earlier work
focal ischemia = details: rat; also when given 3 hours or 5 hours after start of recirculation (temporary model); cited from earlier work
[1] = animal studies / rodents; cited from earlier work
[2] = cited from earlier work
striatal lesions = details: striatal injections; cited from earlier work
[3] = cited from earlier work; remark: listed apart in the source
[4] = cited from earlier work; for plasma levels of thyroid hormone: in vivo
[5] = test system: serum enzyme thyroliberinase; details: cited from earlier work
forebrain neurons = assay: Glutamate-induced neurotoxicity, colorimetric MTT assay, cultured forebrain neurons; type: cell-based, rat
Description: (§1) Primary cultures of neurons derived from the forebrains and spinal cords of E15 fetuses were prepared and maintained in culture for eight days. […] Extending these observations, we compared the neuroprotective efficacy of EEP and TRH.

[6] = test system: glutamate-stimulated Ca2+ dynamics; assay: Glutamate-stimulated Ca2+ dynamics after pre-incubation; type: cell-based
[7] = test system: immobility in the Porsolt swim test; details: administered to rats; cited from earlier work
TRH receptor = target: T1, TRH receptor (Homo sapiens, UniProt P34981); details: reported; cited from earlier work
T1 sequence (P34981 1-398): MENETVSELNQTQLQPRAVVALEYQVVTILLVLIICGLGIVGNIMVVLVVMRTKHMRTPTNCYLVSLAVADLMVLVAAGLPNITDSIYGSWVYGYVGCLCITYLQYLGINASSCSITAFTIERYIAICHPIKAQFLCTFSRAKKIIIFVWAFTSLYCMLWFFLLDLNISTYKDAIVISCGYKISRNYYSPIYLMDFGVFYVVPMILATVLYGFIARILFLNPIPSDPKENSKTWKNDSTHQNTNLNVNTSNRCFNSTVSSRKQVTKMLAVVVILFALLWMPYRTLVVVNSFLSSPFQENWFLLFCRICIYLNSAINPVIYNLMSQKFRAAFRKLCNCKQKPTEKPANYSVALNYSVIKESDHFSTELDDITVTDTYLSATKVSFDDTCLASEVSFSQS

spinal cord neurons = assay: Glutamate-induced neurotoxicity, colorimetric MTT assay, cultured spinal cord neurons; type: cell-based, rat; details: 100 μM glutamate 30 min
Description: as §1

locomotor activity = details: administered to rats; cited from earlier work
[8] = test system: cultured forebrain neurons; assay: Neuroprotection by EEP with or without SPBN in cultured forebrain neurons exposed to Glu, MTT assay; type: cell-based, rat; details: SPBN 10 mM where present, Glu 100 μM, 1 h
Description: Neuroprotection evident at higher concentrations of the tripeptide is further enhanced by the addition of the nitrone. Percent neuroprotection=100×((viabilitytest−vibilitymean Glu))/(viabilitymean control−viabilitymean Glu)). Neuroprotection was then assessed by conducting the colorimetric MTT assay.

[9] = rats, intraperitoneal 1.0 mg/kg; cited from earlier work
[10] = compared with TRH; cited from earlier work

CC(C)(C)[N+]([O-])=Cc1ccc(S(=O)(=O)[O-])cc1S(=O)(=O)[O-].[Na+].[Na+] [NXY-059]
volume of necrosis (volume of necrosis): effective in decreasing volume of necrosis
efficacy in temporary and permanent focal ischemia (focal ischemia): effective

CC(C)(C)[N+]([O-])=Cc1ccccc1 [PBN, α-Phenyl-N-tert-butylnitrone]
toxicity [1]: significant toxicity at high doses; also recorded: toxic in rodents at high doses

CC(C)(C)[N+]([O-])=Cc1ccccc1S(=O)(=O)O [SPBN, N-tert-Butyl-α-(2-sulfophenyl)nitrone]
solubility in aqueous solutions [2]: soluble
toxicity [1]: without significant toxicity; also recorded: Toxicity has not been a problem
volume of lesions induced by NMDA, kainic acid, AMPA, MPP+, 3-acetyl pyridine and malonate (striatal lesions): decreasing the volume of the lesions

NC(=O)[C@@H]1CCCN1C(=O)[C@H](Cc1cnc[nH]1)NC(=O)[C@@H]1CCC(=O)N1 [TRH, pyroglutamate-histidine-proline-amide, reference compound]
hydrolysis by pyroglutamylpeptidase II found in blood ([3]; injected, blood): rapidly hydrolyzed
plasma levels of thyroid hormone [4]: elevates
hydrolysis by serum enzyme thyroliberinase [5]: hydrolyzed
effect on glutamate-mediated neurotoxicity (forebrain neurons): relatively little effect
effect on glutamate-stimulated Ca2+ dynamics [6]: clearly does

pGLU-GLU-PRO-NH2 [EEP]
degradation in human serum ([3]; human serum): not degraded at all
efficacy as a releaser of thyroid stimulating hormone or triiodothyronine ([4]; compared to thyrotropin releasing hormone): minimal efficacy
plasma levels of thyroid hormone [4]: does not elivate
immobility in the Porsolt swim test [7]: decreases
hydrolysis by serum enzyme thyroliberinase [5]: not hydrolyzed
reduction of Glu-induced toxicity (forebrain neurons; 500 μM EEP, 100 μM glutamate 30 min, n=7): 29.8±5.6%
neuroprotection (reduction of Glu-induced toxicity) (forebrain neurons; 1 mM EEP, 100 μM glutamate 30 min, n=7): 54.1±5.3%
neuroprotective efficacy / potency relative to TRH (forebrain neurons; EEP compared with TRH, neuron type not stated): over three times as effective as TRH; also recorded: three times the neuroprotective potency of TRH
affinity for the TRH receptor (TRH receptor): low affinity
reduction of Glu-induced toxicity (spinal cord neurons; 500 μM EEP, n=7): 20±2.0%
neuroprotection (reduction of Glu-induced toxicity) (spinal cord neurons; 1 mM EEP, n=8): 38.9±4.9%
locomotor activity (locomotor activity): increases
Percent Neuroprotection ([8]; EEP 300 μM): 13.321 ± 7.319%
Percent Neuroprotection ([8]; EEP 1000 μM): 35.784 ± 15.431%
effect on glutamate-stimulated Ca2+ dynamics [6]: does not affect
increase of EEP level in amygdala [9]: 7 fold
increase of EEP level in cortex [9]: 14 fold
increase of EEP level in the eye [9]: Over one hundred
increase of EEP level in the hypothalamus [9]: 2 fold
increase of EEP level in the medulla [9]: 4 fold
increase of EEP level in the pituitary [9]: 11 fold
stability in follicular fluid [10]: more stable than TRH
